Source: ChEMBL document CHEMBL5728082, “Aryl, heteroaryl, and heterocyclic compounds for treatment of medical disorders” (2020)

Target: Complement factor D (Homo sapiens, UniProt P00746)
Assay: Inhibition Assay: Human Factor D (purified from human serum, Complement Technology, Inc.) at 80 nM final concentration was incubated with test compound at various concentrations for 5 minutes at room temperature in 50 mM Tris, 1M NaCl, pH 7.5. A synthetic substrate Z-L-Lys-SBzl and DTNB (Ellman's reagent) are added to final concentrations of 100 Î¼M each. […] IC50 values are calculated by nonlinear regression of complement Factor D reaction rates as a function of test compound concentration.

Complement factor D, sequence (P00746 whole entry): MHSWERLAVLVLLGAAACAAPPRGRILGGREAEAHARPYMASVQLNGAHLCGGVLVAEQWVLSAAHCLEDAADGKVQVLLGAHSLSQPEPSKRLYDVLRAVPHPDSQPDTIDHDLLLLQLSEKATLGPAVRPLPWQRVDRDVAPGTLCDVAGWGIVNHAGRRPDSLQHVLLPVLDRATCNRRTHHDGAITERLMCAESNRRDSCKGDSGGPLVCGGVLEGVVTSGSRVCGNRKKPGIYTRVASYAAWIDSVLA

SMILES: CC(=O)c1nn(CC(=O)N2[C@H](C(=O)N[C@H](C)[C@H]3CC3(Cl)Cl)C[C@@]3(C)C[C@@H]23)c2ccc(-c3cnc(C)nc3)cc12
- IC50: < 1000 nM
